The values below come from patent US11857592B2, “Polygala extract for the treatment of attention-deficit hyperactivity disorder” (BioLite, Inc., priority 2020, dated 2024).

The assay concerns ICR male mice. Kind of assay: In vivo tetrabenazine-induced hypothermia assay. Particulars: for activity discovered through in vivo tetrabenazine-induced hypothermia test: antidepressant-like activity in mice; for temperature recovery of TBZ-induced hypothermic response: oral gavage 60 min before TBZ 85 mg/kg i.p., 120 min after TBZ challenge. From the text: The around 70% of PDC-1421 in Example 1 are composed of sucroester (34%), saponin (18%) and xanthone (17%). Some active compounds of in the powder product of Example 1, including polygalatenosides A/B/C (2nd fraction 1), ploygalaxanthone III, sibiricoses A5, and 7-O-methylmangiferin are also discovered through in vivo tetrabenazine-induced hypothermia test (one of rodent models for evaluating antidepressant-like activity in mice). Imipramine (as the positive control), PDC-1421, 1st Fraction 10-19, 1st Fraction 33, 2nd Fraction-1 (wherein the major components are polygalatenosides A/B/C), 2nd Fraction-3, TMCA, Polygalaxanthone III, Onjisaponin B, Sibiricose A5, 7-O-Methylmangiferin and Sibiricaxanthone B are dissolved in water for injection (WFI) and administered by oral gavage. The dosing volume is 10 mL/kg. Test substances and vehicle (WFI) are administered by oral gavage to groups of 8 ICR male mice weighing 23±3 g for 60 minutes, and then tetrabenazine (TBZ, 85 mg/kg) is injected intraperitoneally. Body temperature is recorded before (0 min), and 60, 90 and 120 min after TBZ challenge. Therefore, drug-induced hypothermia (e.g., TBZ and reserpine) animal model is a typical experiment to evaluate the activity of NRI on depression. Temperature recovery of TBZ-induced hypothermic response is considered as indication of a anti-depressant activity.

Consider `COc1cc2c(=O)c3c(O)c([C@@H]4O[C@H](CO)[C@@H](O)[C@H](O)[C@H]4O)c(O)cc3oc2cc1O` [7-O-Methylmangiferin], for which the “activity discovered through in vivo tetrabenazine-induced hypothermia test” value (shortened to “activity discovered through”) is “active” and the “temperature recovery of TBZ-induced hypothermic response” value (shortened to “temperature recovery”) is on record as “had a temperature recovery”.

Regarding `COc1cc2c(=O)c3c(O)c([C@@H]4O[C@H](CO[C@@H]5OC[C@](O)(CO)[C@H]5O)[C@@H](O)[C@H](O)[C@H]4O)c(O)cc3oc2cc1O` [Polygalaxanthone III], the “activity discovered through” value is “active” and the “temperature recovery” value is “had a temperature recovery”.

In the case of `COc1cc(/C=C/C(=O)O[C@H]2[C@H](O)[C@@H](CO)O[C@@]2(CO)O[C@H]2O[C@H](CO)[C@@H](O)[C@H](O)[C@H]2O)ccc1O` [Sibiricoses A5, Sibiricose A5], the “activity discovered through” value is recorded as “active” and the “temperature recovery” value is listed as “had a temperature recovery”.
